The source of these data is ChEMBL document CHEMBL5050843, “Amide substituted thiazoles as protein secretion inhibitors” (2019).

Structures are written as SMILES.

Broadly, the IC50 is the concentration that gives 50% inhibition. High values mean a need for much substance, low ones inhibition by little substance.

Format in all cases: functional, cell-based
A short description of assay [1]: Inhibition of constitutively active VCAMss-Gluc secretion in human Flp-In-T-REx-293 cells measured by Gaussia luciferase reporter gene method. For orientation: Reporter assays use an easily measured gene product as a stand-in for the process of interest.
Assay [2] is described as follows: Inhibition of constitutively active PR1ss-Gluc secretion in human Flp-In-T-REx-293 cells measured by Gaussia luciferase reporter gene method.
Assay [3] in a line: Inhibition of PD1ss-Gluc secretion in doxycyclin-induced human Flp-In-T-REx-293 cells measured by Gaussia luciferase reporter gene method.
Assay [4] in a line: Inhibition of PR1ss-Gluc secretion in doxycyclin-induced human Flp-In-T-REx-293 cells measured by Gaussia luciferase reporter gene method.

For `Cc1ccc(C(=O)Nc2nc(C(C)(C)C)cs2)s1`, the figures for the IC50 in assay [1] and in assay [2] were 7.65 µM and > 25 µM, respectively.
The like results for `CC(C)(C)c1csc(NC(=O)Cc2cccs2)n1` were, in that order, 5.7 µM and > 80 µM.
In the same order, the values of `CC(C)(C)c1csc(NC(=O)c2cc3cc(Br)ccc3s2)n1` are > 25 µM and > 25 µM.
The like results for `CC(C)(C)c1csc(NC(=O)c2cc3cc(C4=CCCCC4)ccc3s2)n1` were, in that order, 16.2 µM and > 25 µM.
`CCC(C)n1cc(CC(=O)Nc2nc(C(C)(C)C)cs2)c2cc(Cl)ccc21` (configuration not stated): the IC50 is 4.38 µM in assay [3] and > 25 µM in assay [4].
Take `CC(C)(C)c1csc(NC(=O)CN2CCCCC2)n1`: the IC50 in assay [1] and in assay [2] was > 25 µM throughout.
In the case of `CC(C)(C)c1csc(NC(=O)Cc2cn(Cc3ccccc3S(C)(=O)=O)c3ccc(Cl)cc23)n1`, the figures for the IC50 in assay [3] and in assay [4] were 13.2 µM and > 25 µM, respectively.
On to `CC(C)(C)c1csc(NC(=O)c2cc3cc(Cl)ccc3s2)n1`, for which the IC50 was 9.27 µM in assay [1] and > 25 µM in assay [2].
In the case of `COc1ccc2c(c1)c(CC(=O)Nc1nc(C(C)(C)C)cs1)cn2Cc1ccccc1`, the values for the 50% inhibitory concentration (IC50) in assay [3] and in assay [4] were 3.41 µM and > 25 µM, respectively.
With `CC(C)(C)c1csc(NC(=O)c2csc3ccccc23)n1`, the IC50 in assay [1] is 22.6 µM; in assay [2], > 25 µM.
In the same order, the values of `CC(C)(C)c1csc(NC(=O)c2cc3c(Cl)cccc3s2)n1` are 5.7 µM and > 25 µM.
As to `CC(C)(C)c1csc(CNC(=O)Cc2csc3ccccc23)n1`, the IC50 in assay [1] and in assay [2] was > 25 µM throughout.
On to `CC(C)(C)c1csc(NC(=O)c2cc3cc(C(F)(F)F)ccc3s2)n1`, for which the IC50 is 16.5 µM in assay [1] and > 25 µM in assay [2].
On to `Cc1cc(C(=O)N(C)c2nc(C(C)(C)C)cs2)cs1`, for which the IC50 in assay [1] and in assay [2] was > 25 µM throughout.
With `CC(C)(C)c1csc(NC(=O)Cc2cn(-c3ccccn3)c3ccc(Cl)cc23)n1`, the IC50 is 8.72 µM in assay [3] and > 25 µM in assay [4].
Consider `CC(C)(C)c1csc(NC(=O)Cc2cn(-c3cccc(Cl)c3)c3ccc(Cl)cc23)n1`, for which the IC50 in assay [3] was 4.14 µM; in assay [4] it was > 25 µM.
Turning to `CC(C)(C)c1csc(NC(=O)c2cc3cc(-c4cccc(Cl)c4)ccc3s2)n1`, the IC50 in assay [1] is 5.02 µM; in assay [2], > 25 µM.
The like results for `CC(C)(C)c1csc(NC(=O)Cn2cnc3ccccc32)n1` were, in that order, > 25 µM and > 25 µM.
The like results for `Cc1csc(C(=O)Nc2nc(C(C)(C)C)cs2)c1` were, in that order, 17.1 µM and > 25 µM.
Consider `CC(C)(C)c1csc(NC(=O)Cc2cn(Cc3ccccc3C(N)=O)c3ccc(Cl)cc23)n1`, for which the IC50 in assay [3] and in assay [4] was > 25 µM each time.
For the compound `CC(C)(C)c1csc(NC(=O)c2cc3ccccc3s2)n1`, the IC50 was 4.93 µM in assay [1] and > 25 µM in assay [2].
The like results for `CC(C)(C)c1csc(NC(=O)c2cc3cc(-c4ccccc4)ccc3s2)n1` were, in that order, 11 µM and > 25 µM.
The like results for `Cc1cc(C(=O)Nc2nc(C3CC3)cs2)cs1` were, in that order, > 25 µM and > 25 µM.
The like results for `C#Cc1ccc2sc(C(=O)Nc3nc(C(C)(C)C)cs3)cc2c1` were, in that order, > 25 µM and > 25 µM.
`CC(C)(C)c1csc(NC(=O)c2ccc3ocnc3c2)n1`: the IC50 in assay [1] and in assay [2] was > 25 µM in each case.
For `CC(C)(C)c1nc(NC(=O)Cc2csc3ccc(Cl)cc23)sc1Cl`, the concentration for half-maximal inhibition (IC50) in assay [1] is 11.8 µM; in assay [2] it was > 25 µM.
In the same order, the values of `CC(C)c1cccc(C(=O)Nc2nc(C(C)(C)C)cs2)c1` are > 25 µM and > 25 µM.
In the same order, the values of `CC(C)(C)c1csc(NC(=O)c2cccc(C(F)(F)F)c2)n1` are 7.6 µM and > 80 µM.
The like results for `Cc1ccc(C(=O)Nc2nc(C(F)(F)F)cs2)s1` were, in that order, > 25 µM and > 25 µM.
For `CC(C)(C)c1csc(NC(=O)c2cccc(CN3CCOCC3)c2)n1`, the IC50 in assay [1] and in assay [2] was > 25 µM throughout.
For `CCCCCc1ccc2sc(C(=O)Nc3nc(C(C)(C)C)cs3)cc2c1`, the values for the IC50 in assay [1] and in assay [2] were 8.14 µM and > 25 µM, respectively.
For `CC(C)(C)c1csc(NC(=O)c2cc3cccc(Cl)c3s2)n1`, the IC50 in assay [1] was 3.22 µM; in assay [2], > 25 µM.
The like results for `CC#Cc1ccc2sc(C(=O)Nc3nc(C(C)(C)C)cs3)cc2c1` were, in that order, 4.97 µM and > 25 µM.
The like results for `CC(C)(C)c1csc(NC(=O)COC2CCCCC2)n1` were, in that order, > 25 µM and > 25 µM.
On to `CC(C)(C)c1csc(NC(=O)Cc2cn(Cc3ccccc3)c3ccc(Br)cc23)n1`, for which the results for the IC50 in assay [3] and in assay [4] were 6.13 µM and > 25 µM, respectively.
Regarding `CC(C)(C)c1csc(NC(=O)Cc2cn(C3CCCC3)c3ccc(Cl)cc23)n1`, the figures for the IC50 in assay [3] and in assay [4] were 6.52 µM and > 25 µM, respectively.
The like results for `CC(C)(C)c1csc(NC(=O)Cc2cn(CCc3ccccc3)c3ccc(Cl)cc23)n1` were, in that order, 4.15 µM and > 25 µM.
Turning to `CC(C)(C)c1csc(NC(=O)c2ncn[nH]2)n1`, the IC50 in assay [1] and in assay [2] was > 25 µM each time.
On to `CC(C)(C)c1csc(NC(=O)c2cc3cc(-c4ccc(Cl)cc4)ccc3s2)n1`, for which the IC50 in assay [1] is 14 µM; in assay [2] it was > 25 µM.
The like results for `COc1cccc(C(=O)Nc2nc(C(C)(C)C)cs2)c1` were, in that order, > 25 µM and > 25 µM.
The like results for `CC(C)(C)c1csc(NC(=O)c2cccc(C#N)c2)n1` were, in that order, > 25 µM and > 25 µM.
In the same order, the values of `Cc1cc(C(=O)Nc2nc(C(C)(C)C)cs2)no1` are > 80 µM and > 80 µM.
Regarding `Cc1c(C(=O)Nc2nc(C(C)(C)C)cs2)sc2ccc(Cl)cc12`, the IC50 in assay [1] and in assay [2] was > 25 µM each time.
`CC(C)(C)c1csc(NC(=O)Cc2cn(-c3ccc(Cl)cc3)c3ccc(Cl)cc23)n1`: the IC50 in assay [3] was 2.69 µM; in assay [4], > 25 µM.
`CC(C)(C)c1csc(NC(=O)c2cc3cc(-c4cccnc4)ccc3s2)n1`: the IC50 in assay [1] and in assay [2] was > 25 µM in each case.
On to `CC(C)(C)c1csc(NC(=O)c2cc3ccccc3o2)n1`, for which the figures for the IC50 in assay [1] and in assay [2] were 23.8 µM and > 25 µM, respectively.
For the compound `CC(=O)N(C)[C@@H](Cc1cn(Cc2ccc(F)cc2)c2ccccc12)C(=O)Nc1nc(C(C)(C)C)cs1`, the IC50 in assay [3] and in assay [4] was > 25 µM throughout.
`CC(C)(C)c1csc(NC(=O)CN2CCOCC2)n1`: the IC50 in assay [1] and in assay [2] was > 25 µM each time.
As to `CCCc1ccc2sc(C(=O)Nc3nc(C(C)(C)C)cs3)cc2c1`, the IC50 in assay [1] is 14.1 µM; in assay [2], > 25 µM.
In the same order, the values of `Cn1c(C(=O)Nc2nc(C(C)(C)C)cs2)cc2ccccc21` are 2.21 µM and > 25 µM.
Take `CC(C)(C)c1csc(NC(=O)c2cccnn2)n1`: the IC50 in assay [1] and in assay [2] was > 25 µM each time.
On to `CC(C)(C)c1csc(NC(=O)c2sc3ccccc3c2Cl)n1`, for which the IC50 in assay [1] and in assay [2] was > 25 µM in each case.
Consider `CC(C)(C)c1csc(NC(=O)Cc2cn(-c3ccccc3Cl)c3ccc(Cl)cc23)n1`, for which the IC50 in assay [3] is 4.4 µM; in assay [4] it was > 25 µM.
In the case of `CC(C)(C)c1csc(NC(=O)c2scc3c2CCCC3)n1`, the IC50 in assay [1] and in assay [2] was > 25 µM in each case.
`CC(C)(C)c1csc(NC(=O)Cc2cn(Cc3ccccc3)c3ccc(C(N)=O)cc23)n1`: the IC50 in assay [3] and in assay [4] was > 25 µM throughout.
For `CC(C)(C)c1csc(NC(=O)Cc2cn(Cc3ccccc3)c3ccc(C#N)cc23)n1`, the IC50 in assay [3] is 6.06 µM; in assay [4] it was > 25 µM.
Regarding `CC(C)(C)c1csc(NC(=O)Cn2ncc3ccccc32)n1`, the IC50 in assay [1] and in assay [2] was > 25 µM in each case.
Turning to `CC(C)(C)c1csc(NC(=O)c2cc3cc(C(N)=O)ccc3s2)n1`, the IC50 in assay [1] and in assay [2] was > 25 µM each time.
With `CC(C)(C)c1csc(NC(=O)c2cc3ccc(Cl)cc3s2)n1`, the IC50 in assay [1] and in assay [2] was > 25 µM in each case.
Turning to `CC(C)(C)c1csc(NC(=O)c2ccccc2)n1`, the results for the IC50 in assay [1] and in assay [2] were 10.4 µM and > 80 µM, respectively.
In the same order, the values of `CC(C)(C)c1csc(NC(=O)c2cccc(N3CCCC3)c2)n1` are > 25 µM and > 25 µM.
Regarding `CC(C)(C)c1csc(NC(=O)Cc2cn(Cc3ccccc3C#N)c3ccc(Cl)cc23)n1`, the IC50 in assay [3] is 3.65 µM; in assay [4], > 25 µM.
Take `CC(C)(C)c1csc(NC(=O)Cc2cccc(S(C)(=O)=O)c2)n1`: the IC50 in assay [1] and in assay [2] was > 25 µM throughout.
For the compound `CC(C)(C)c1csc(NC(=O)c2cc3cc(C4CCCC4)ccc3s2)n1`, the IC50 in assay [1] and in assay [2] was > 25 µM throughout.
Take `CCc1csc(NC(=O)c2csc(C)c2)n1`: the IC50 in assay [1] and in assay [2] was > 25 µM each time.
`Cc1cc(C(=O)Nc2nc(C(C)(C)C)cs2)sc1C`: the half-inhibitory concentration (IC50) is 9.08 µM in assay [1] and > 25 µM in assay [2].
`CC(C)(C)c1csc(NC(=O)Cn2ccc3ccccc32)n1`: the IC50 was 8.75 µM in assay [1] and > 25 µM in assay [2].
In the same order, the values of `CC(C)(C)c1csc(NC(=O)c2cc3cc(C4=CCCC4)ccc3s2)n1` are > 25 µM and > 25 µM.
The like results for `CC(C)(C)c1csc(NC(=O)c2ccnnc2)n1` were, in that order, > 25 µM and > 25 µM.
Regarding `O=C(Cc1csc2ccc(Cl)cc12)Nc1nc(Cc2ccccc2)cs1`, the IC50 in assay [1] was 19.9 µM; in assay [2], > 25 µM.
For `CC(C)Cn1cc(CC(=O)Nc2nc(C(C)(C)C)cs2)c2cc(Cl)ccc21`, the values for the half-maximal inhibitory concentration (IC50) in assay [3] and in assay [4] were 5.38 µM and > 25 µM, respectively.
